# Measured values: US20240191244A1 (priority 2020, published 2024)
# System: wild-type HN08 strain
# Format: cell-based, C. siamense
smiles,measurement,value
N#Cc1c[nH]cc1-c1cccc2c1OC(F)(F)O2 [fludioxonil],strain growth rate,gradually decreases
